{"source": "ChEMBL document CHEMBL4706474", "about": "“Tetrahydro-2-naphthyl and 2-Indanyl Triazolopyrimidines Targeting Plasmodium falciparum Dihydroorotate Dehydrogenase Display Potent and Selective Antimalarial Activity” (J Med Chem, 2016)", "key": {"[1]": {"test": "Elimination half-life in Swiss mouse at 20 mg/kg, po administered as single dose via gavage measured over 24 hrs by LC-MS analysis", "type": "ADME, organism-based", "settings": "in vivo, read-out: beta t1/2 (converted)"}, "[2]": {"test_system": "Plasmodium falciparum", "test": "Antiplasmodial activity against Plasmodium falciparum 3D7 infected in po dosed NSG mouse assessed as reduction in parasitemia administered once daily for 4 consecutive days starting from day 3 post-infection and measured 24 hrs post last dose by flow cytometric analysis", "type": "functional", "settings": "3D7, po, 96 h, time 4 day"}, "[3]": {"test": "Intrinsic clearance in rat liver microsomes assessed per mg protein at 1 uM by LC-MS analysis", "type": "ADME, Microsome", "settings": "microsomes, 1 µM"}, "[4]": {"biological_target": "Cytochrome P450 2D6 (Homo sapiens, UniProt P10635)", "sequence (P10635 whole entry, canonical isoform)": "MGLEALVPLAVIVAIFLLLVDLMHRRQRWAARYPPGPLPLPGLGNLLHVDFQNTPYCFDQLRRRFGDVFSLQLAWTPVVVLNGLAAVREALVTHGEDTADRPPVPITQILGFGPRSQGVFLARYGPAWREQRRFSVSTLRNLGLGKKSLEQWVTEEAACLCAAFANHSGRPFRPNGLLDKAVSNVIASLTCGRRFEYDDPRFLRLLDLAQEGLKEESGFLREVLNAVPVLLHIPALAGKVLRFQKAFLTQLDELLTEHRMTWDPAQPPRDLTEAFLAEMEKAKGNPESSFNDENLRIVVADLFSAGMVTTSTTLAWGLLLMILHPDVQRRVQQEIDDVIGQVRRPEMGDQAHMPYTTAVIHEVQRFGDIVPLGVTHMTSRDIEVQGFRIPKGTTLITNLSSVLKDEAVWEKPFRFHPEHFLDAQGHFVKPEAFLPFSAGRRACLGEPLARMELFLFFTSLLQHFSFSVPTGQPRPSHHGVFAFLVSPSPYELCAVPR", "test": "Inhibition of CYP2D6 in human liver microsomes using isoform-specific probe substrates in presence of NADPH-generating system by LC-MS analysis", "type": "ADME"}, "[5]": {"test": "Unbound AUC (0 to infinity) in Swiss mouse at 20 mg/kg, po administered as single dose via gavage measured over 24 hrs by LC-MS analysis", "type": "ADME, organism-based", "settings": "in vivo"}, "[6]": {"biological_target": "Cytochrome P450 2C19 (Homo sapiens, UniProt P33261)", "sequence (P33261 whole entry, canonical isoform)": "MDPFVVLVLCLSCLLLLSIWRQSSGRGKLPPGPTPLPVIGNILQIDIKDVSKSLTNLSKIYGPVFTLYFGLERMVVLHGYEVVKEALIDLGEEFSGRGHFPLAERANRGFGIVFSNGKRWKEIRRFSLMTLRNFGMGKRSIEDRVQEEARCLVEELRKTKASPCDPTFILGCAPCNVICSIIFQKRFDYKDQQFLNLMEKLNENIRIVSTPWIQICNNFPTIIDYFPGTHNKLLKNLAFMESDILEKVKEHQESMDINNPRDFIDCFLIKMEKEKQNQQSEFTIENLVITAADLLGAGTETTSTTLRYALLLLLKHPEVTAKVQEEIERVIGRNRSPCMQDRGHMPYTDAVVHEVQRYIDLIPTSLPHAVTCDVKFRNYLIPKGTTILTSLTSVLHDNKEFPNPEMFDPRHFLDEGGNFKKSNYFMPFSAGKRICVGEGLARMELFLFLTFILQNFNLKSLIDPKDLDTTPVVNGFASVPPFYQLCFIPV", "test": "Inhibition of CYP2C19 in human liver microsomes using isoform-specific probe substrates in presence of NADPH-generating system by LC-MS analysis", "type": "ADME", "settings": "read-out: IC50"}, "[7]": {"biological_target": "Dihydroorotate dehydrogenase (quinone), mitochondrial (Mus musculus, UniProt O35435)", "sequence (O35435 whole entry)": "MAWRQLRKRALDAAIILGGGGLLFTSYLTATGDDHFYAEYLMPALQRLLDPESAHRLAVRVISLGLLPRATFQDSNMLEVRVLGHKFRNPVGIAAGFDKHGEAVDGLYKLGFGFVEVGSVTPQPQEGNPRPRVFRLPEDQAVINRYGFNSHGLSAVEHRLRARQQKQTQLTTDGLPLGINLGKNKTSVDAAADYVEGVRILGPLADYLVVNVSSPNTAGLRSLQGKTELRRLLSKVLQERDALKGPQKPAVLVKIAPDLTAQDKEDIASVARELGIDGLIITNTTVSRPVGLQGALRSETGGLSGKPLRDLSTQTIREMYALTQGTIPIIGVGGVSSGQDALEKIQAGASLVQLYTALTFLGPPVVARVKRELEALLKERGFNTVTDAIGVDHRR"}, "[8]": {"test_system": "Plasmodium falciparum", "test": "Antimalarial activity against atovaquone, chloroquine, cycloguanil and pyrimethamine resistant Plasmodium falciparum TM90C2B", "type": "functional, organism-based"}, "[9]": {"test": "Lipophilicity, logD of the compound at pH 7.4", "type": "physicochemical", "settings": "buffer"}, "[10]": {"test": "Unbound Cmax in Swiss mouse at 20 mg/kg, po administered as single dose via gavage measured over 24 hrs by LC-MS analysis", "type": "ADME, organism-based", "settings": "in vivo"}, "[11]": {"test": "Solubility of compound in FaSSIF at pH 6.5 measured after 5 to 6 hrs by HPLC-UV based analysis"}, "[12]": {"biological_target": "Dihydroorotate dehydrogenase (quinone), mitochondrial (Rattus norvegicus, UniProt Q63707)", "sequence (Q63707 whole entry)": "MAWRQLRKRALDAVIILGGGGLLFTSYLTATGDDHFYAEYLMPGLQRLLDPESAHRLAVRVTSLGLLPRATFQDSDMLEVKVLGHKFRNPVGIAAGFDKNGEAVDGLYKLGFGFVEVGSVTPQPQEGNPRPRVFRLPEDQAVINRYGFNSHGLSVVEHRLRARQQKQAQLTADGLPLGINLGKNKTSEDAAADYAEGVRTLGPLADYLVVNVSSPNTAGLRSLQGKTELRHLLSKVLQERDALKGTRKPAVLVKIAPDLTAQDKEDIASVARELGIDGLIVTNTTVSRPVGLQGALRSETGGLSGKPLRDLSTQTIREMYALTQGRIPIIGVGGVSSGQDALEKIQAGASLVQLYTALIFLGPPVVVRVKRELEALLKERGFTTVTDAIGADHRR", "test": "Inhibition of N-terminal His6-tagged rat DHODH expressed in Escherichia coli BL21 expressed in Escherichia coli BL21 using L-DHO as substrate and CoQ as co-substrate by DCIP dye based spectrophotometric assay"}, "[13]": {"test": "Protein binding in Swiss mouse plasma at 20 mg/kg, po administered as single dose via gavage measured over 24 hrs by LC-MS analysis", "type": "ADME, organism-based", "settings": "read-out: PPB (converted)"}, "[14]": {"test": "Inhibition of N-terminal His6-tagged Plasmodium vivax DHODH expressed in Escherichia coli BL21 using L-DHO as substrate and CoQ as co-substrate by DCIP dye based spectrophotometric assay"}, "[15]": {"test": "Protein binding in rat plasma assessed as bound fraction by LC-MS analysis based ultracentrifugation assay", "type": "ADME, cell-free", "settings": "read-out: PPB (converted)"}, "[16]": {"test": "Kinetic solubility of compound in phosphate buffer at pH 6.5 measured after 30 mins by HPLC-UV based analysis", "type": "physicochemical", "settings": "phosphate buffer, pH 6.5, read-out: Kinetic_solubility"}, "[17]": {"test": "Solubility of compound in 0.1 N HCl measured after 5 to 6 hrs by HPLC-UV based analysis", "type": "physicochemical", "settings": "buffer; time 5-6 hrs"}, "[18]": {"test": "Intrinsic clearance in mouse liver microsomes at 1 uM by LC-MS analysis", "type": "ADME, Microsome"}, "[19]": {"test_system": "Plasmodium falciparum", "test": "Antimalarial activity against pyrimethamine resistant Plasmodium falciparum HB3", "type": "functional, organism-based"}, "[20]": {"test_system": "Plasmodium falciparum", "test": "Antimalarial activity against Plasmodium falciparum D6", "type": "functional, organism-based"}, "[21]": {"test": "Protein binding in human plasma assessed as bound fraction by LC-MS analysis based ultracentrifugation assay", "type": "ADME, cell-free", "settings": "read-out: PPB (converted)"}, "[22]": {"biological_target": "Cytochrome P450 3A4 (Homo sapiens, UniProt P08684)", "sequence (P08684 whole entry, canonical isoform)": "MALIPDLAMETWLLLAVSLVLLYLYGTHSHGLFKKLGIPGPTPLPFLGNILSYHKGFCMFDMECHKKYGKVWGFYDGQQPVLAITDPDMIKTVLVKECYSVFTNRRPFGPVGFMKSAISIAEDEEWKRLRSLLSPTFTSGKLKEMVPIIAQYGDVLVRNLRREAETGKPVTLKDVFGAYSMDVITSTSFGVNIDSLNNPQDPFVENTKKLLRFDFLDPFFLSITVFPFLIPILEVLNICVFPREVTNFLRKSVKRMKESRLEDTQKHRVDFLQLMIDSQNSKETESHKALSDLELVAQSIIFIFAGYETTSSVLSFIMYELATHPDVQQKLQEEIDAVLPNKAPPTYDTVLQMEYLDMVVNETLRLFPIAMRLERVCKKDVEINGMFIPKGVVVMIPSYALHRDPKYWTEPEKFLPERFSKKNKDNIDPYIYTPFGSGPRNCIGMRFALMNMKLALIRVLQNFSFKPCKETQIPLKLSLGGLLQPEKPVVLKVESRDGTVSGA", "test": "Inhibition of CYP3A4 in human liver microsomes using isoform-specific probe substrates in presence of NADPH-generating system by LC-MS analysis", "type": "ADME", "settings": "read-out: IC50"}, "[23]": {"test_system": "Plasmodium falciparum", "test": "Antimalarial activity against chloroquine, pyrimethamine and cycloguanil resistant Plasmodium falciparum K1", "type": "functional, organism-based"}, "[24]": {"test": "AUC (0 to infinity) in Swiss mouse at 20 mg/kg, po administered as single dose via gavage measured over 24 hrs by LC-MS analysis", "type": "ADME, organism-based", "design": "route oral, dose 20 mg/kg, time >24", "settings": "in vivo"}, "[25]": {"biological_target": "T1, Cytochrome P450 2B6 (Homo sapiens, UniProt P20813)", "T1 sequence (P20813 whole entry)": "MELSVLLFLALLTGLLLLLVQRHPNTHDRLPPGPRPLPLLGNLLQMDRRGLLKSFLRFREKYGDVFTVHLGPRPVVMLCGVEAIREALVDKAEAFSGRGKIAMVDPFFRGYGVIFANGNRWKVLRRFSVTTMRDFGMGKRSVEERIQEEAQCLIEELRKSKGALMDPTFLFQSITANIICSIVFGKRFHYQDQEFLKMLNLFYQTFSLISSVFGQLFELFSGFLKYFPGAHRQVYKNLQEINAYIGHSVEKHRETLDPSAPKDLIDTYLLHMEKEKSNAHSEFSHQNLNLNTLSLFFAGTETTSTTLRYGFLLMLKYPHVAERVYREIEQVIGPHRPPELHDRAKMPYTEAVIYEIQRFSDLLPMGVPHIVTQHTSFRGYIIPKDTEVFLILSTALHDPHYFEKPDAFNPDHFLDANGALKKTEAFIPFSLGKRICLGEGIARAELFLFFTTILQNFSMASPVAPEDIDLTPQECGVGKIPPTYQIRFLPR", "test": "Inhibition of CYP2B6 in human liver microsomes using isoform-specific probe substrates in presence of NADPH-generating system by LC-MS analysis", "type": "ADME"}, "[26]": {"test": "Inhibition of N-terminal His6-tagged Plasmodium falciparum DHODH expressed in Escherichia coli BL21 using L-DHO as substrate and CoQ as co-substrate by DCIP dye based spectrophotometric assay"}, "[27]": {"biological_target": "T2, Cytochrome P450 1A2 (Homo sapiens, UniProt P05177)", "T2 sequence (P05177 whole entry)": "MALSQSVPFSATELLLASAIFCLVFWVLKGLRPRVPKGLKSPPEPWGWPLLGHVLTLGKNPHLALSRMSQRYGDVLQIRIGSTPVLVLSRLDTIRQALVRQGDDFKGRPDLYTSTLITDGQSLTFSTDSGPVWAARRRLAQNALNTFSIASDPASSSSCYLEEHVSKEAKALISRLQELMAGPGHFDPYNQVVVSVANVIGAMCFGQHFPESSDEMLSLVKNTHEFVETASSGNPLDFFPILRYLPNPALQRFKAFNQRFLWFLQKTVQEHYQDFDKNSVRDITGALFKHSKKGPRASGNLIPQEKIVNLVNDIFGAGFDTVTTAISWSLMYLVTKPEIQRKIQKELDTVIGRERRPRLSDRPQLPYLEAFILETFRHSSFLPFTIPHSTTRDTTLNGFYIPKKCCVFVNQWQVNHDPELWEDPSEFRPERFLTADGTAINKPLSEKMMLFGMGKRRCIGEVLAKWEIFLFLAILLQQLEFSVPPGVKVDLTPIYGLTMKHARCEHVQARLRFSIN", "test": "Inhibition of CYP1A2 in human liver microsomes using isoform-specific probe substrate in presence of NADPH-generating system by LC-MS analysis", "type": "ADME"}, "[28]": {"test_system": "Plasmodium falciparum", "test": "Antimalarial activity against chloroquine, quinine, mefloquine, pyrimethamine, cycloguanil and sulfadoxine resistant Plasmodium falciparum Dd2", "type": "functional, organism-based"}}, "note": "Calls of active or inactive are those of the source. No cut-off for these calls is given here."}
{"smiles": "Cc1cc(NC2Cc3cc(F)c(F)cc3C2)n2nc(C(C)(F)F)nc2n1", "values": [{"measurement": "half-life", "setting": "[1]", "result": 120, "unit": "min"}, {"measurement": "ED90", "setting": "[2]", "result": 35, "unit": "mg/kg"}, {"measurement": "Intrinsic clearance in rat liver microsomes (uL/min/mg protein)", "setting": "[3]", "result": "< 7", "unit": "µL/min"}, {"measurement": "IC50", "setting": "[4]", "result": 5.9, "unit": "µM"}, {"measurement": "fAUC", "setting": "[5]", "result": 7.9, "unit": "µM·h"}, {"measurement": "IC50", "setting": "[6]", "result": "> 20", "unit": "µM"}, {"measurement": "IC50", "setting": "[7]", "result": "> 100", "unit": "µM"}, {"measurement": "Activity", "setting": "[8]", "result": "Active"}, {"measurement": "logD", "setting": "[9]", "result": 3.4}, {"measurement": "fCmax", "setting": "[10]", "result": 1.4, "unit": "µM"}, {"measurement": "solubility", "setting": "[11]", "result": 15, "unit": "µg/mL"}, {"measurement": "IC50", "setting": "[12]", "result": "> 100", "unit": "µM"}, {"measurement": "fraction unbound at 24 h", "setting": "[13]", "result": 0.047}, {"measurement": "IC50", "setting": "[14]", "result": 370, "unit": "nM"}, {"measurement": "fraction unbound", "setting": "[15]", "result": 0.058}, {"measurement": "solubility kinetic at 0.5 h", "setting": "[16]", "result": 6.3, "unit": "µg/mL"}, {"measurement": "solubility", "setting": "[17]", "result": 180, "unit": "µg/mL"}, {"measurement": "intrinsic clearance", "setting": "[18]", "result": 21, "unit": "µL/min"}, {"measurement": "Activity", "setting": "[19]", "result": "Active"}, {"measurement": "Activity", "setting": "[20]", "result": "Active"}, {"measurement": "fraction unbound", "setting": "[21]", "result": 0.066}, {"measurement": "IC50", "setting": "[22]", "result": "> 20", "unit": "µM"}, {"measurement": "Activity", "setting": "[23]", "result": "Active"}, {"measurement": "AUC", "setting": "[24]", "result": 169, "unit": "µM·h"}, {"measurement": "IC50", "setting": "[25]", "result": "> 20", "unit": "µM"}, {"measurement": "IC50", "setting": "[26]", "result": 52, "unit": "nM"}, {"measurement": "IC50", "setting": "[27]", "result": "> 20", "unit": "µM"}, {"measurement": "Activity", "setting": "[28]", "result": "Active"}]}
{"smiles": "Cc1cc(N[C@H]2CCc3ccc(Cl)cc3C2)n2nc(C(C)(F)F)nc2n1", "values": [{"measurement": "half-life", "setting": "[1]", "result": 120, "unit": "min"}, {"measurement": "ED90", "setting": "[2]", "result": 19, "unit": "mg/kg"}, {"measurement": "Intrinsic clearance in rat liver microsomes (uL/min/mg protein)", "setting": "[3]", "result": 38, "unit": "µL/min"}, {"measurement": "IC50", "setting": "[4]", "result": 2.7, "unit": "µM"}, {"measurement": "fAUC", "setting": "[5]", "result": 0.59, "unit": "µM·h"}, {"measurement": "IC50", "setting": "[6]", "result": "> 20", "unit": "µM"}, {"measurement": "IC50", "setting": "[7]", "result": "> 100", "unit": "µM"}, {"measurement": "Activity", "setting": "[8]", "result": "Active"}, {"measurement": "logD", "setting": "[9]", "result": 3.9}, {"measurement": "fCmax", "setting": "[10]", "result": 0.13, "unit": "µM"}, {"measurement": "solubility", "setting": "[11]", "result": 12, "unit": "µg/mL"}, {"measurement": "IC50", "setting": "[12]", "result": "> 100", "unit": "µM"}, {"measurement": "fraction unbound at 24 h", "setting": "[13]", "result": 0.026}, {"measurement": "IC50", "setting": "[14]", "result": 10, "unit": "nM"}, {"measurement": "fraction unbound", "setting": "[15]", "result": 0.036}, {"measurement": "solubility kinetic at 0.5 h", "setting": "[16]", "result": 3.1, "unit": "µg/mL"}, {"measurement": "solubility", "setting": "[17]", "result": 105, "unit": "µg/mL"}, {"measurement": "intrinsic clearance", "setting": "[18]", "result": 31, "unit": "µL/min"}, {"measurement": "Activity", "setting": "[19]", "result": "Active"}, {"measurement": "Activity", "setting": "[20]", "result": "Active"}, {"measurement": "fraction unbound", "setting": "[21]", "result": 0.033}, {"measurement": "IC50", "setting": "[22]", "result": "> 20", "unit": "µM"}, {"measurement": "Activity", "setting": "[23]", "result": "Active"}, {"measurement": "AUC", "setting": "[24]", "result": 22.7, "unit": "µM·h"}, {"measurement": "IC50", "setting": "[25]", "result": "> 20", "unit": "µM"}, {"measurement": "IC50", "setting": "[26]", "result": 6.3, "unit": "nM"}, {"measurement": "IC50", "setting": "[27]", "result": "> 20", "unit": "µM"}, {"measurement": "Activity", "setting": "[28]", "result": "Active"}]}
